Measured values from EP0092073A1, “Magnesium salt of chenodeoxycholic acid and ursodeoxycholic acid, the process for its preparation, and therapeutic compositions which contain it as active principle” (SCHWARZ ITALIA S.p.A., priority 1982, dated 1983).
Read-outs that look alike come from different tables or passages of the source.

Experiments:
hampsters [1] = assay: Action on the formation of cholesterol calculi in the gall-bladder (cholesterol-enriched diet, 80 days); format: in vivo; conditions: female hampsters; for % animals with calculi / % animals with crystals: cholesterol-enriched diet
Protocol: (§1) The investigations were carried out on hampsters (of female sex, but excluding those in a state of pregnancy) having an initial weight of 75-90 g. They were treated for 80 days with oral administration (by gastric probe) of MG-UCD (10-20 mg/kg/day), chenodeoxycholic acid (10-20 mg/kg/day) or ursodeoxycholic acid (10-20 mg/kg/day) (Tables 4 and 5). The animals were maintained for 80 consecutive days on a Nossan feed diet for rats, enriched with cholesterol (2 mg/g of food).
(§2) Each experimental group consisted of 10 units. After 80 days, the animals were narcotised with ethyl ether, and the bile was withdrawn, together with the calculi and crystals from the gall-bladder as described by Pearlman and coll. in Gastroenterology 77, 634 (1979).

rat = assay: Acute lethality and toxicity, oral administration (gastric probe); format: in vivo; parameters: key to Toxic symptomatology Type: NN = no symptomatology; D = depression; conditions: oral
Protocol: (§3) Unless otherwise specified, the research was carried out using: a) Mg-UCD capsules as such; b) the powdered contents of Mg-UCD capsules; CDCA (chenodeoxycholic acid) and UDCA (ursodeoxycholic acid) as pure substance which in all cases was partly dissolved and partly suspended under warm conditions (T = 30°C) in 10% gum arabic mucilage (so as to administer 10-40 ml of liquid per kg orally). In certain cases, namely in the experiments involving parenteral administration, the active principle of Mg-UCD, the chenodeoxycholic acid and ursodeoxycholic acid were dissolved in distilled water of slightly alkaline pH (5-10 ml/kg).
(§4) The generally acute lethality, toxicity and tolerability were determined by oral administration of the Mg-UCD (by gastric probe) in the Mus musculus, rat and dog. Animals of both sexes were used, none of which were pregnant. They were fasted for about 12 hours before treatment (but allowing them free access to water). The investigations were carried out using the Mg-UCD in powder form. Comparative investigations were carried out on the rat and Mus musculus using the active principle by endoperitoneal administration, and chenodeoxycholic acid and ursodeoxycholic acid by oral administration (using a gastric probe). Each dose was administered to 20 rats or Mus musculus (10 male and 10 female) and to eight dogs (4 male and 4 female). The animals were observed attentively during the 7 days following administration, and any lethality, toxic symptoms, disturbances, functional variations determinable with the eye, behaviour etc. were noted.
(§5) The LD50 was determined 7 days after administration using the probit method.

Mus musculus = assay: as above; format: in vivo; parameters: key to Toxic symptomatology Type: NN = no symptomatology; D = depression; conditions: oral
Protocol: as §3, §4, §5

[2] = as above; format: in vivo, Mus musculus; parameters: key to Toxic symptomatology Type: NN = no symptomatology; D = depression; conditions: in vivo, po; for mortality at 24 h / mortality at 168 h: oral; for mortality at 24 h: read-out: % mortality at following times after administration 24 h; for mortality at 168 h: read-out: % mortality at following times after administration 7 days; for LD50 at 168 h: probit method, read-out: LD50 (mg/kg with reliability limits) 7 days after treatment
Protocol: as §3, §4, §5

hampsters [3] = assay: Bile lipid and bile acid contents of the bile (cholesterol-enriched diet, 80 days); format: in vivo
Protocol: as §1, §2
The bile acid, phospholipid, cholesterol, cholic acid, chenodeoxycholic acid, ursodeoxycholic acid, DCA (deoxycholic acid) and LCA (lithocholic acid) contents were evaluated in the bile by the methods described by Pearlman and coll. (see above).

patients = assay: Controlled study in comparison with the free acids; tolerability in patients; format: in vivo; conditions: patients
[4] = mouse, 2000 mg/kg, M. musculus F, 2000 mg/kg
[5] = mouse, 2000 mg/kg, M. musculus M, 2000 mg/kg
[6] = mouse, 4000 mg/kg, M. musculus F, 4000 mg/kg
[7] = mouse, 4000 mg/kg, M. musculus M, 4000 mg/kg
[8] = mouse, 8000 mg/kg, M. musculus F, 8000 mg/kg
[9] = mouse, 8000 mg/kg, M. musculus M, 8000 mg/kg
[10] = rat, 2000 mg/kg, Rat F, 2000 mg/kg
[11] = rat, 2000 mg/kg, Rat M, 2000 mg/kg
[12] = rat, 4000 mg/kg, Rat F, 4000 mg/kg
[13] = rat, 4000 mg/kg, Rat M, 4000 mg/kg
[14] = rat, 8000 mg/kg, Rat F, 8000 mg/kg
[15] = rat, 8000 mg/kg, Rat M, 8000 mg/kg

## C[C@H](CCC(=O)O)[C@H]1CC[C@H]2[C@@H]3[C@H](O)C[C@@H]4C[C@H](O)CC[C@]4(C)[C@H]3CC[C@]12C [Chenodeoxycholic acid, 17β-(1-methyl-3-carboxypropyl)-ethiocholane-3α, 7α-diol]
Hampsters [1]; 10 mg/kg/day oral for 80 days
  % animals with calculi: 50%
  % animals with crystals: 30%
Hampsters [1]; 20 mg/kg/day oral for 80 days
  % animals with calculi: 0%
  % animals with crystals: 0%
Hampsters [1]; day 80, oral, 10 mg/kg/day
  Body weight (g ± s.e.) after following days 80: 148 ± 9 g
rat; Rat F, 2000 mg/kg
  Toxic symptomatology Latency: 5-10 min
  Toxic symptomatology Type: D
rat; Rat F, 4000 mg/kg
  Toxic symptomatology Latency: 5-10 min
  Toxic symptomatology Type: D
rat; Rat F, 8000 mg/kg
  Toxic symptomatology Latency: 5-10 min
  Toxic symptomatology Type: D
rat; Rat M, 2000 mg/kg
  Toxic symptomatology Latency: 5-10 min
  Toxic symptomatology Type: D
rat; Rat M, 4000 mg/kg
  Toxic symptomatology Latency: 5-10 min
  Toxic symptomatology Type: D
rat; Rat M, 8000 mg/kg
  Toxic symptomatology Latency: 5-10 min
  Toxic symptomatology Type: D
Mus musculus; M. musculus F, 2000 mg/kg
  Toxic symptomatology Latency: 5-10 min
  Toxic symptomatology Type: D
Mus musculus; M. musculus F, 4000 mg/kg
  Toxic symptomatology Latency: 5-10 min
  Toxic symptomatology Type: D
Mus musculus; M. musculus F, 8000 mg/kg
  Toxic symptomatology Latency: 5-10 min
  Toxic symptomatology Type: D
Mus musculus; M. musculus M, 2000 mg/kg
  Toxic symptomatology Latency: 5-10 min
  Toxic symptomatology Type: D
Mus musculus; M. musculus M, 4000 mg/kg
  Toxic symptomatology Latency: 5-10 min
  Toxic symptomatology Type: D
Mus musculus; M. musculus M, 8000 mg/kg
  Toxic symptomatology Latency: 5-10 min
  Toxic symptomatology Type: D
[2]; [4]
  mortality at 24 h: 0%
  mortality at 168 h: 0%
[2]; [5]
  mortality at 24 h: 0%
  mortality at 168 h: 0%
[2]; [6]
  mortality at 24 h: 30%
  mortality at 168 h: 30%
[2]; [7]
  mortality at 24 h: 30%
  mortality at 168 h: 30%
[2]; [8]
  mortality at 24 h: 80%
  mortality at 168 h: 80%
[2]; [9]
  mortality at 24 h: 80%
  mortality at 168 h: 80%
[2]; mouse, M. musculus F
  LD50 at 168 h: 5280 mg/kg
[2]; mouse, M. musculus M
  LD50 at 168 h: 5280 mg/kg
[2]; [10]
  mortality at 24 h: 0%
  mortality at 168 h: 0%
[2]; [11]
  mortality at 24 h: 0%
  mortality at 168 h: 0%
[2]; [12]
  mortality at 24 h: 30%
  mortality at 168 h: 30%
[2]; [13]
  mortality at 24 h: 40%
  mortality at 168 h: 40%
[2]; [14]
  mortality at 24 h: 90%
  mortality at 168 h: 90%
[2]; [15]
  mortality at 24 h: 80%
  mortality at 168 h: 80%
[2]; rat, Rat F
  LD50 at 168 h: 4890 mg/kg
[2]; rat, Rat M
  LD50 at 168 h: 4010 mg/kg
Hampsters [3]; 10 mg/kg/day oral for 80 days
  Bile acids (expressed as molar % ± s.e.) Cheno-deoxycholic acid: 42.1 ± 3.6 molar %
  Bile acids (expressed as molar % ± s.e.) Cholic acid: 29.6 ± 2.6 molar %
  Bile acids (expressed as molar % ± s.e.) DCA: 12.7 ± 0.6 molar %
  Bile acids (expressed as molar % ± s.e.) LCA: 3.2 ± 0.1 molar %
  Bile acids (expressed as molar % ± s.e.) Urso-deoxycholic acid: 6.6 ± 0.4 molar %
  Bile lipids (expressed as molar % ± s.e.) Bile acids: 79.5 ± 5.6 molar %
  Bile lipids (expressed as molar % ± s.e.) Cholesterol: 7.2 ± 0.2 molar %
  Bile lipids (expressed as molar % ± s.e.) Phospho-lipids: 16.0 ± 1.8 molar %
Hampsters [3]; 20 mg/kg/day oral for 80 days
  Bile acids (expressed as molar % ± s.e.) Cheno-deoxycholic acid: 66.0 ± 4.7 molar %
  Bile acids (expressed as molar % ± s.e.) Cholic acid: 18.7 ± 2.1 molar %
  Bile acids (expressed as molar % ± s.e.) DCA: 10.4 ± 0.2 molar %
  Bile acids (expressed as molar % ± s.e.) LCA: 3.4 ± 0.3 molar %
  Bile acids (expressed as molar % ± s.e.) Urso-deoxycholic acid: 7.8 ± 0.3 molar %
  Bile lipids (expressed as molar % ± s.e.) Bile acids: 80.2 ± 3.8 molar %
  Bile lipids (expressed as molar % ± s.e.) Cholesterol: 5.9 ± 0.3 molar %
  Bile lipids (expressed as molar % ± s.e.) Phospho-lipids: 15.8 ± 1.3 molar %
patients
  side effects: diarrhoea, and, in certain cases, transaminase increase
